Tests used:
[1] = molecular target: T1, human EBP (Homo sapiens, UniProt Q15125); test: hEBP SPA competition binding assay ([3H]-Ifenprodil)
T1 construct: expressed in transfected cells; host or cells: human embryonic kidney 293 cells
Procedure: Membrane preparation: To examine compound binding affinity to EBP, human EBP was overexpressed in human embryonic kidney 293 cells. Cell pellet was lysed in 10 times weight binding buffer (50 mM Tris, 5 mM MgCl2, 0.1 mM EDTA, lx protease inhibitor cocktail, pH 7.5) on ice by using a dounce homogenizer. The solution was centrifuged at 25,000 g for 50 min at 4° C. The membrane pellet was re-suspended in binding buffer and run through a 25⅝ gauge needle. After checking the concentration by Bradford assay, the whole cell membrane solution was adjusted to 20 mg/mL and stored at −80° C.
This binding solution was centrifuged at 400 g for 5 minutes to collect the bead/membrane mixture. After re-suspending the pellet in binding buffer at the same calculated volume with 0.01% BSA (Sigma A1933), the bead/membrane mixture was added in 384-well low-binding surface plate (PerkinElmer Cat #6057480) at 25 µl/well. Radioligand at different concentrations with and without the non-radio-labeled same ligand 5 uM (for nonspecific and total signal, respectively) was added to bring final volume to 50 µl/well with DMSO concentration at 0.1%. At equilibrium (3 hours after ligand addition), radiometric signal CPM was counted by using a Microbeta2 microplate counter (Perkinelmer).
A pre-incubated bead/membrane mixture was added in compound plate at 0.3 mg beads and […] membrane per well. […] At equilibrium (3 hours after ligand addition), radiometric signal was counted as described above. The percentage inhibition of compound at each testing concentration was calculated by normalizing each condition's CPM readout to full block (5 uM non-radiolabeled ligand) and non-block (DMSO) control conditions. Compound binding inhibition IC50 was determined by nonlinear regression fitting of percentage inhibition plot against compound concentration. Compound Ki was calculated from the equation Ki=IC50/(1+[L]/Kd), which [L] was radioligand concentration used in assay. All tests had N bigger or equal to 2.

[2] = system: EpiSC-derived OPCs; test: In vitro phenotypic screening of OPCs (MBP high-content imaging); format: cell-based; conditions: Mus musculus, 72 h; percentage of MBP-positive oligodendrocytes, 3 days, 0.5 nM to 1000 nM; read-out: OPC EC50
Procedure, shortened: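 Mouse EpiSC-derived OPCs seeded at 150,000/cm^2 without growth factors, treated 3 days at 37° C with 8-point doses from 1000 nM to 0.5 nM. Fixed, MBP immunostained with DAPI; high-content imaging gives percentage MBP-positive oligodendrocytes.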

T1 sequence (Q15125 whole entry): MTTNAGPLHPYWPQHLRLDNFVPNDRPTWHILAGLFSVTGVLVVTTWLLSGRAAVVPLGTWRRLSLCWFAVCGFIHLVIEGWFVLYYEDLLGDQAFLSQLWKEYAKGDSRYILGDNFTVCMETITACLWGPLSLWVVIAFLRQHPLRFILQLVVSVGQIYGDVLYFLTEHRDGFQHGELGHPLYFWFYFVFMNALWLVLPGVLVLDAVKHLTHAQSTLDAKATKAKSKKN

Compound	Ki [1] [nM]	EC50 [2] [nM]
CC(C)n1nc(-c2cccc(C(F)(F)F)c2)cc1[C@H]1[C@@H]2C[C@@H](N3CCC4(C3)CS(=O)(=O)C4)C[C@@H]21 (single isomer, unassigned) [Compound 2]	38	0.9
CC(C)n1nc(-c2cncc(C(F)(F)F)c2)cc1[C@H]1[C@@H]2C[C@H](N3CCC4(C3)CS(=O)(=O)C4)C[C@@H]21 (single isomer, unassigned) [Compound 4]	31	14
CC(C)n1nc(-c2cncc(C(F)(F)F)c2)cc1[C@H]1[C@@H]2C[C@H](N3CC[C@@]4(CCS(=O)(=O)C4)C3)C[C@@H]21 (single isomer, unassigned) [Compound 9*]	26	3.8
CC(C)n1nc(-c2cccc(C(F)(F)F)n2)cc1[C@H]1[C@@H]2C[C@@H](N3CCC4(C3)CS(=O)(=O)C4)C[C@@H]21 (single isomer, unassigned) [Compound 11]	36	14
CC(C)n1nc(-c2cccc(C(F)(F)F)n2)cc1[C@H]1[C@@H]2C[C@H](N3CCC4(C3)CS(=O)(=O)C4)C[C@@H]21 (single isomer, unassigned) [Compound 12]	17	9.7
CC(C)n1nc(-c2cncc(C(F)(F)F)c2)nc1[C@H]1[C@@H]2C[C@@H](N3CCC4(C3)CS(=O)(=O)C4)C[C@@H]21 (single isomer, unassigned) [Compound 16]	20	24
CC(C)n1nc(-c2ccnc(C(F)(F)F)c2)cc1[C@H]1[C@@H]2C[C@@H](N3CCC4(C3)CS(=O)(=O)C4)C[C@@H]21 (single isomer, unassigned) [Compound 18]	30	15
CC(C)n1nc(-c2cc(C(F)(F)F)ccn2)cc1[C@H]1[C@@H]2C[C@@H](N3CCC4(C3)CS(=O)(=O)C4)C[C@@H]21 (single isomer, unassigned) [Compound 20]	62	39
CC(C)n1nc(-c2cncc(C(F)(F)F)c2)cc1[C@H]1[C@@H]2C[C@@H](N3CCC4(CC3)CS(=O)(=O)C4)C[C@@H]21 (single isomer, unassigned) [Compound 38]	26	4.9
CC(C)n1nc(-c2cncc(C(F)(F)F)c2)cc1[C@H]1[C@@H]2C[C@H](N3CCC4(CC3)CS(=O)(=O)C4)C[C@@H]21 (single isomer, unassigned) [Compound 40]	26	15
CC(C)n1nc(-c2cccc(C(F)(F)F)n2)cc1[C@H]1[C@@H]2C[C@H](N3CCC4(CC3)CS(=O)(=O)C4)C[C@@H]21 (single isomer, unassigned) [Compound 48]	15	15
CC(C)n1nc(-c2ccnc(C(F)(F)F)n2)cc1[C@H]1[C@@H]2C[C@@H](N3CCC4(CC3)CS(=O)(=O)C4)C[C@@H]21 (single isomer, unassigned) [Compound 49]	24	4.6
CC(C)n1nc(-c2ccnc(C(F)(F)F)n2)cc1[C@H]1[C@@H]2C[C@H](N3CCC4(CC3)CS(=O)(=O)C4)C[C@@H]21 (single isomer, unassigned) [Compound 50]	18	69
CC(C)n1nc(-c2ccc(C(F)(F)F)cc2)cc1[C@H]1[C@@H]2C[C@H](N3CCC4(C3)CS(=O)(=O)C4)C[C@@H]21 [Compound 5, 6-((1R,3r,5S,6r)-6-(1-Isopropyl-3-(4-(trifluoromethyl)phenyl)-1H-pyrazol-5-yl)bicyclo[3.1.0]hexan-3-yl)-2-thia-6-azaspiro[3.4]octane 2,2-dioxide]	22	8
CC(C)n1nc(-c2cnc(C(F)(F)F)nc2)cc1[C@H]1[C@@H]2C[C@H](N3CCC4(C3)CS(=O)(=O)C4)C[C@@H]21 [Compound 6, 6-((1R,3r,5S,6r)-6-(1-Isopropyl-3-(2-(trifluoromethyl)pyrimidin-5-yl)-1H-pyrazol-5-yl)bicyclo[3.1.0]hexan-3-yl)-2-thia-6-azaspiro[3.4]octane 2,2-dioxide]	19	200
CC(C)n1nc(-c2ccnc(C(F)(F)F)n2)cc1[C@H]1[C@@H]2C[C@@H](N3CCC4(C3)CS(=O)(=O)C4)C[C@@H]21 [Compound 28, 6-((1R,3s,5S,6r)-6-(1-isopropyl-3-(2-(trifluoromethyl)pyrimidin-4-yl)-1H-pyrazol-5-yl)bicyclo[3.1.0]hexan-3-yl)-2-thia-6-azaspiro[3.4]octane 2,2-dioxide]	22	39
C=C(c1cc([C@H]2[C@@H]3C[C@H](N4CCC5(C4)CS(=O)(=O)C5)C[C@@H]32)n(C(C)C)n1)C(F)(F)F [Compound 31, 6-((1R,3r,5S,6r)-6-(1-Isopropyl-3-(3,3,3-trifluoroprop-1-en-2-yl)-1H-pyrazol-5-yl)bicyclo[3.1.0]hexan-3-yl)-2-thia-6-azaspiro[3.4]octane 2,2-dioxide]	37	30
CC(C)n1nc(C2(C(F)(F)F)CC2)cc1[C@H]1[C@@H]2C[C@H](N3CCC4(C3)CS(=O)(=O)C4)C[C@@H]21 [Compound 32, 6-((1R,3r,5S,6r)-6-(1-Isopropyl-3-(1-(trifluoromethyl)cyclopropyl)-1H-pyrazol-5-yl)bicyclo[3.1.0]hexan-3-yl)-2-thia-6-azaspiro[3.4]octane 2,2-dioxide]	23	29

Second part, the compound after the results:

Ki [1] [nM]	EC50 [2] [nM]	Compound
67	420	CC(C)n1nc(-c2cncc(C(F)(F)F)c2)nc1[C@H]1[C@@H]2C[C@H](N3CCC4(C3)CS(=O)(=O)C4)C[C@@H]21 (single isomer, unassigned) [Compound 17]
16	13	CC(C)n1nc(-c2ccnc(C(F)(F)F)c2)cc1[C@H]1[C@@H]2C[C@H](N3CCC4(C3)CS(=O)(=O)C4)C[C@@H]21 (single isomer, unassigned) [Compound 19]
43	6.6	CC(C)n1nc(-c2cc(C(F)(F)F)ccn2)cc1[C@H]1[C@@H]2C[C@H](N3CCC4(C3)CS(=O)(=O)C4)C[C@@H]21 (single isomer, unassigned) [Compound 21]
30	53	CC(C)n1nc(C(F)(F)F)cc1[C@H]1[C@@H]2C[C@@H](N3CCC4(C3)CS(=O)(=O)C4)C[C@@H]21 (single isomer, unassigned) [Compound 22]
13	53	CC(C)n1nc(C(F)(F)F)cc1[C@H]1[C@@H]2C[C@H](N3CCC4(C3)CS(=O)(=O)C4)C[C@@H]21 (single isomer, unassigned) [Compound 23]
30	9.3	CCn1nc(-c2cncc(C(F)(F)F)c2)cc1[C@H]1[C@@H]2C[C@@H](N3CCC4(C3)CS(=O)(=O)C4)C[C@@H]21 (single isomer, unassigned) [Compound 24]
26	4.2	CCn1nc(-c2cncc(C(F)(F)F)c2)cc1[C@H]1[C@@H]2C[C@H](N3CCC4(C3)CS(=O)(=O)C4)C[C@@H]21 (single isomer, unassigned) [Compound 25]
19	1.7	CC(C)n1nc(-c2cccc(C(F)(F)F)n2)cc1[C@H]1[C@@H]2C[C@@H](N3CCC4(CC3)CS(=O)(=O)C4)C[C@@H]21 (single isomer, unassigned) [Compound 47]
51	300	CC(C)n1nc(-c2cncc(C(F)(F)F)c2)cc1[C@H]1[C@@H]2C[C@@H](N3CC4(C3)CS(=O)(=O)C4)C[C@@H]21 (single isomer, unassigned) [Compound 98*]
58	300	CC(C)n1nc(-c2cncc(C(F)(F)F)c2)cc1[C@H]1[C@@H]2C[C@H](N3CC4(C3)CS(=O)(=O)C4)C[C@@H]21 (single isomer, unassigned) [Compound 99*]
19	6.6	CC(C)n1nc(-c2ccnc(C(F)(F)F)n2)cc1[C@H]1[C@@H]2C[C@H](N3CCC4(C3)CS(=O)(=O)C4)C[C@@H]21 [Compound 15, 6-((1R,3r,5S,6r)-6-(1-Isopropyl-3-(2-(trifluoromethyl)pyrimidin-4-yl)-1H-pyrazol-5-yl)bicyclo[3.1.0]hexan-3-yl)-2-thia-6-azaspiro[3.4]octane 2,2-dioxide]
